Laboratory results published in ChEMBL document CHEMBL1255373, “In vitro antibacterial activity of CE-156811, a novel analog derived from hygromycin A” (2008).
In brackets after ≈: the same amount, converted by molar mass.

Columns and labels:
Type in all cases: functional
[1] = tested on: Enterococcus faecium; test: Antibacterial activity against linezolid-resistant Enterococcus faecium 03B1074 by broth microdilution method
[2] = tested on: Enterococcus faecium; test: Antibacterial activity against linezolid-resistant Enterococcus faecium 03B1076 by broth microdilution method
[3] = tested on: Enterococcus faecium; test: Antibacterial activity against linezolid-resistant Enterococcus faecium 03B1073 by broth microdilution method
[4] = tested on: Streptococcus pneumoniae; test: Antibacterial activity against penicillin-nonsusceptible Streptococcus pneumoniae clinical isolate by broth microdilution method
[5] = tested on: Staphylococcus aureus; test: Antibacterial activity against methicillin-susceptible Staphylococcus aureus clinical isolate by broth microdilution method
[6] = tested on: Streptococcus pneumoniae; test: Antibacterial activity against penicillin-susceptible Streptococcus pneumoniae clinical isolate by broth microdilution method
[7] = tested on: Corynebacterium sp.; test: Antibacterial activity against Corynebacterium sp. by broth microdilution method
[8] = tested on: Enterococcus faecium; test: Antibacterial activity against vancomycin-resistant Enterococcus faecium clinical isolate by broth microdilution method
[9] = tested on: Staphylococcus; test: Antibacterial activity against coagulase-negative Staphylococcus clinical isolate by broth microdilution method
[10] = tested on: Staphylococcus aureus; test: Antibacterial activity against glycopeptide-intermediate Staphylococcus aureus clinical isolate by broth microdilution method
[11] = tested on: Staphylococcus epidermidis; test: Antibacterial activity against methicillin-susceptible Staphylococcus epidermidis clinical isolate by broth microdilution method
[12] = tested on: Enterococcus faecalis; test: Antibacterial activity against linezolid-resistant Enterococcus faecalis 03A1128 by broth microdilution method
[13] = tested on: Enterococcus faecium; test: Antibacterial activity against linezolid-resistant Enterococcus faecium 03B1077 by broth microdilution method
[14] = tested on: Enterococcus faecalis; test: Antibacterial activity against vancomycin-resistant Enterococcus faecalis clinical isolate by broth microdilution method
[15] = tested on: Staphylococcus aureus; test: Antibacterial activity against linezolid-resistant Staphylococcus aureus 01A1221 by broth microdilution method
[16] = tested on: Enterococcus faecium; test: Antibacterial activity against linezolid-resistant Enterococcus faecium 03B1078 by broth microdilution method
[17] = tested on: Enterococcus faecium; test: Antibacterial activity against linezolid-resistant Enterococcus faecium 03B1075 by broth microdilution method
[18] = tested on: Enterococcus faecium; test: Antibacterial activity against vancomycin-susceptible Enterococcus faecium clinical isolate by broth microdilution method
[19] = tested on: Streptococcus pyogenes; test: Antibacterial activity against Streptococcus pyogenes clinical isolate by broth microdilution method
[20] = tested on: Staphylococcus aureus; test: Antibacterial activity against methicillin-resistant Staphylococcus aureus clinical isolate by broth microdilution method
[21] = tested on: Enterococcus faecalis; test: Antibacterial activity against vancomycin-susceptible Enterococcus faecalis clinical isolate by broth microdilution method
[22] = tested on: Listeria monocytogenes; test: Antibacterial activity against Listeria monocytogenes clinical isolate by broth microdilution method
[23] = tested on: Staphylococcus aureus; test: Antibacterial activity against linezolid-resistant Staphylococcus aureus 01A1220 by broth microdilution method
[24] = tested on: Enterococcus faecalis; test: Antibacterial activity against […] Enterococcus faecalis ATCC 29212 by broth microdilution method

SMILES	MIC [1]	MIC [3]	MIC50 [4]	MIC90 [4]	MIC50 [5]	MIC90 [5]	MIC50 [6]	MIC90 [6]	MIC50 [7]	MIC90 [7]	MIC50 [8]	MIC90 [8]	MIC50 [9]	MIC90 [9]	MIC50 [11]	MIC90 [11]	MIC [12]	MIC [13]	MIC50 [14]	MIC90 [14]	other results
CC(=O)NC[C@H]1CN(c2ccc(N3CCOCC3)c(F)c2)C(=O)O1 [LINEZOLID]	32 µg/mL (≈ 94.9 µM)	2 µg/mL (≈ 5.93 µM)	0.5 µg/mL (≈ 1.48 µM)	1 µg/mL (≈ 2.96 µM)	2 µg/mL (≈ 5.93 µM)	2 µg/mL (≈ 5.93 µM)	1 µg/mL (≈ 2.96 µM)	1 µg/mL (≈ 2.96 µM)	1 µg/mL (≈ 2.96 µM)	1 µg/mL (≈ 2.96 µM)	2 µg/mL (≈ 5.93 µM)	4 µg/mL (≈ 11.9 µM)	2 µg/mL (≈ 5.93 µM)	2 µg/mL (≈ 5.93 µM)	0.5 µg/mL (≈ 1.48 µM)	1 µg/mL (≈ 2.96 µM)	> 32 µg/mL	8 µg/mL (≈ 23.7 µM)	2 µg/mL (≈ 5.93 µM)	2 µg/mL (≈ 5.93 µM)	MIC [2]: 32 µg/mL (≈ 94.9 µM); MIC [10]: 0.5 µg/mL (≈ 1.48 µM); MIC [15]: > 32 µg/mL; MIC [16]: 32 µg/mL (≈ 94.9 µM); MIC [17]: 32 µg/mL (≈ 94.9 µM); MIC [18]: 2 µg/mL (≈ 5.93 µM); MIC50 [18]: 2 µg/mL (≈ 5.93 µM); MIC90 [18]: 2 µg/mL (≈ 5.93 µM); MIC50 [19]: 2 µg/mL (≈ 5.93 µM); MIC90 [19]: 2 µg/mL (≈ 5.93 µM); MIC [20]: 1 µg/mL (≈ 2.96 µM); MIC50 [20]: 1 µg/mL (≈ 2.96 µM); MIC90 [20]: 1 µg/mL (≈ 2.96 µM); MIC50 [21]: 2 µg/mL (≈ 5.93 µM); MIC90 [21]: 2 µg/mL (≈ 5.93 µM); MIC [22]: 2 µg/mL (≈ 5.93 µM); MIC50 [22]: 2 µg/mL (≈ 5.93 µM); MIC90 [22]: 2 µg/mL (≈ 5.93 µM); MIC [23]: > 32 µg/mL
CC1(C)S[C@@H]2[C@H](NC(=O)Cc3ccccc3)C(=O)N2[C@H]1C(=O)O [PENICILLIN G]			2 µg/mL (≈ 5.98 µM)	4 µg/mL (≈ 12 µM)			0.015 µg/mL (≈ 0.0449 µM)	0.015 µg/mL (≈ 0.0449 µM)													MIC [6]: 0.015 µg/mL (≈ 0.0449 µM)
CN[C@H](CC(C)C)C(=O)N[C@H]1C(=O)N[C@@H](CC(N)=O)C(=O)N[C@H]2C(=O)N[C@H]3C(=O)N[C@H](C(=O)N[C@H](C(=O)O)c4cc(O)cc(O)c4-c4cc3ccc4O)[C@H](O)c3ccc(c(Cl)c3)Oc3cc2cc(c3O[C@@H]2O[C@H](CO)[C@@H](O)[C@H](O)[C@H]2O[C@H]2C[C@](C)(N)[C@H](O)[C@H](C)O2)Oc2ccc(cc2Cl)[C@H]1O [VANCOMYCIN]	> 32 µg/mL	> 32 µg/mL	0.25 µg/mL (≈ 0.173 µM)	0.25 µg/mL (≈ 0.173 µM)	0.5 µg/mL (≈ 0.345 µM)	1 µg/mL (≈ 0.69 µM)	0.25 µg/mL (≈ 0.173 µM)	0.25 µg/mL (≈ 0.173 µM)	0.5 µg/mL (≈ 0.345 µM)	1 µg/mL (≈ 0.69 µM)	> 32 µg/mL	> 32 µg/mL	2 µg/mL (≈ 1.38 µM)	2 µg/mL (≈ 1.38 µM)	1 µg/mL (≈ 0.69 µM)	2 µg/mL (≈ 1.38 µM)	1 µg/mL (≈ 0.69 µM)	> 32 µg/mL	> 32 µg/mL	> 32 µg/mL	MIC [6]: 0.25 µg/mL (≈ 0.173 µM); MIC [24]: 2 µg/mL (≈ 1.38 µM); MIC [16]: > 32 µg/mL; MIC [17]: > 32 µg/mL; MIC50 [18]: 1 µg/mL (≈ 0.69 µM); MIC90 [18]: 1 µg/mL (≈ 0.69 µM); MIC50 [20]: 1 µg/mL (≈ 0.69 µM); MIC90 [20]: 2 µg/mL (≈ 1.38 µM); MIC50 [21]: 2 µg/mL (≈ 1.38 µM); MIC90 [21]: 4 µg/mL (≈ 2.76 µM); MIC [22]: 1 µg/mL (≈ 0.69 µM); MIC50 [22]: 1 µg/mL (≈ 0.69 µM); MIC90 [22]: 1 µg/mL (≈ 0.69 µM)
